The results in this text go back to US20230085307A1, “PYRIDAZINONE COMPOUND AND HERBICIDE” (NISSAN CHEMICAL CORPORATION, priority 2019, published 2023).

For one assay, the system named is chickweed. Kind of assay: Test Example 5: herbicidal effect by foliage application, plastic box (Table 20, symbol P). Type of assay: in vivo, common chickweed (Stellaria media). To be noted: foliage application, 320 g/ha, three weeks after application. A digest of the protocol:
(§1)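 Sow seeds spot-wise in sterilized diluvial soil; cover with ~1.5 cm soil. Grow 14 days in greenhouse, 25° C. to 30° C. Spray foliage with emulsion diluted to predetermined amount. Rate effect after 3 weeks.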

The subject of assay [1] is southern crabgrass. Kind of assay: Test Example 5: herbicidal effect by foliage application, plastic box (Table 20, symbol F). The format is in vivo, southern crabgrass (Digitaria ciliaris). To be noted: foliage application, 320 g/ha, three weeks after application. A digest of the protocol:
as §1

Assay [2] has as its system lambsquarters. Kind of assay: Test Example 5: herbicidal effect by foliage application, plastic box (Table 20, symbol O). Type of assay: in vivo, lambsquarters (Chenopodium album). The note with it: foliage application, 320 g/ha, three weeks after application. A digest of the protocol:
as §1

The subject of another assay is Chinese sprangletop. Kind of assay: Test Example 3: herbicidal effect by foliage application, Wagner pot (Table 18, symbol D). The format is in vivo, chinese sprangletop (Leptochloa chinensis). The note with it: amount of applied herbicide 320 g/ha. A digest of the protocol:
(§2)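 Plants were sown in alluvial soil held under 0.1–0.5 cm standing water and grown 14 days in a greenhouse at 25–30 °C. An emulsifiable formulation, water-diluted to the set dose, was then sprayed onto the foliage, and effects were scored three weeks later using previously defined criteria.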

The test system of assay [3] is barnyard grass. Kind of assay: Test Example 3: herbicidal effect by foliage application, Wagner pot (Table 18, symbol H). Type of assay: in vivo, barnyard grass (Echinochloa crus-galli). The note with it: amount of applied herbicide 320 g/ha. A digest of the protocol:
as §2

A further assay has as its system wild oat. The assay can be described thus: Test Example 5: herbicidal effect by foliage application, plastic box (Table 20, symbol I). Type of assay: in vivo, wild oat (Avena fatua). To be noted: foliage application, 320 g/ha, three weeks after application. A digest of the protocol:
as §1

Assay [4] relates to barnyard grass. The assay can be described thus: Test Example 5: herbicidal effect by foliage application, plastic box (Table 20, symbol H). The format is in vivo, barnyard grass (Echinochloa crus-galli). To be noted: foliage application, 320 g/ha, three weeks after application. The gist of the method:
as §1

In the next assay the test system is Japanese bulrush. The assay can be described thus: Test Example 1: herbicidal activity, application before weed generation under submerged conditions (Table 16, symbol B). The note with it: amount of applied herbicide 320 g/ha. The format is in vivo, Japanese bulrush (Schoenoplectus juncoides). The gist of the method:
(§3)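 Alluvial soil was flooded to 4 cm depth, weed seeds were sown mixed and 2.5-leaf rice seedlings were transplanted. On sowing day, the compound's emulsion, diluted in water to a set dose, was applied to the water surface. Plants grew at 25–30 °C and were scored 0–5 after three weeks.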

Assay [5] deals with green foxtail. Kind of assay: Test Example 5: herbicidal effect by foliage application, plastic box (Table 20, symbol G). The format is in vivo, green foxtail (Setaria viridis). The note with it: foliage application, 320 g/ha, three weeks after application. The gist of the method: as §1
A further assay has as its system Italian ryegrass. Kind of assay: Test Example 5: herbicidal effect by foliage application, plastic box (Table 20, symbol K). The format is in vivo, Italian ryegrass (Lolium multiflorum). To be noted: foliage application, 320 g/ha, three weeks after application. A digest of the protocol: as §1
In a further assay the test system is persian speedwell. Kind of assay: Test Example 5: herbicidal effect by foliage application, plastic box (Table 20, symbol R). To be noted: foliage application, 320 g/ha, three weeks after application. Type of assay: in vivo, Persian speedwell (Veronica persica). A digest of the protocol: as §1
The subject of a further assay is windgrass. The assay can be described thus: Test Example 5: herbicidal effect by foliage application, plastic box (Table 20, symbol L). To be noted: foliage application, 320 g/ha, three weeks after application. Type of assay: in vivo, windgrass (Apera spica-venti). A digest of the protocol:
as §1

In the next assay the test system is blackgrass. Kind of assay: Test Example 5: herbicidal effect by foliage application, plastic box (Table 20, symbol J). The format is in vivo, blackgrass (Alopecurus myosuroides). To be noted: foliage application, 320 g/ha, three weeks after application. The gist of the method: as §1
In another assay the test system is late watergrass. Kind of assay: Test Example 1: herbicidal activity, application before weed generation under submerged conditions (Table 16, symbol A). Type of assay: in vivo, late watergrass (Echinochloa oryzicola). To be noted: amount of applied herbicide 320 g/ha. The gist of the method: as §3
The test system of assay [6] is velvetleaf. The assay can be described thus: Test Example 5: herbicidal effect by foliage application, plastic box (Table 20, symbol M). Type of assay: in vivo, velvetleaf (Abutilon theophrasti). The note with it: foliage application, 320 g/ha, three weeks after application. A digest of the protocol:
as §1

A further assay deals with rice flat sedge. Kind of assay: Test Example 3: herbicidal effect by foliage application, Wagner pot (Table 18, symbol E). The format is in vivo, rice flat sedge (Cyperus iria). To be noted: amount of applied herbicide 320 g/ha. The gist of the method:
as §2

The test system of the next assay is oval-leafed pondweed. The assay can be described thus: Test Example 1: herbicidal activity, application before weed generation under submerged conditions (Table 16, symbol C). To be noted: amount of applied herbicide 320 g/ha. Type of assay: in vivo, oval-leafed pondweed (Monochoria vaginalis). The gist of the method:
as §3

Assay [7] deals with velvetleaf. The assay can be described thus: Test Example 4: herbicidal effect by soil treatment (Table 19, symbol M). Type of assay: in vivo, velvetleaf (Abutilon theophrasti). To be noted: amount of applied herbicide 320 g/ha. The gist of the method:
(§4)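 Soil-surface application: an emulsion agent diluted with water to the predetermined dose is sprayed uniformly over seeds lying under roughly 1.5 cm of sterilized diluvial soil. Boxes stay in a greenhouse at 25° C. to 30° C. Three weeks later, each species is graded on previously defined criteria.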

In assay [8] the test system is barnyard grass. The assay can be described thus: Test Example 4: herbicidal effect by soil treatment (Table 19, symbol H). Type of assay: in vivo, barnyard grass (Echinochloa crus-galli). To be noted: amount of applied herbicide 320 g/ha. A digest of the protocol:
as §4

The test system of assay [9] is southern crabgrass. Kind of assay: Test Example 4: herbicidal effect by soil treatment (Table 19, symbol F). To be noted: amount of applied herbicide 320 g/ha. The format is in vivo, southern crabgrass (Digitaria ciliaris). A digest of the protocol:
as §4

For assay [10], the system named is lambsquarters. Kind of assay: Test Example 4: herbicidal effect by soil treatment (Table 19, symbol O). The format is in vivo, lambsquarters (Chenopodium album). The note with it: amount of applied herbicide 320 g/ha. A digest of the protocol:
as §4

Assay [11] has as its system redroot pigweed. Kind of assay: Test Example 5: herbicidal effect by foliage application, plastic box (Table 20, symbol N). The note with it: foliage application, 320 g/ha, three weeks after application. The format is in vivo, redroot pigweed (Amaranthus retroflexus). The gist of the method: as §1
Assay [12] relates to green foxtail. Kind of assay: Test Example 4: herbicidal effect by soil treatment (Table 19, symbol G). Type of assay: in vivo, green foxtail (Setaria viridis). To be noted: amount of applied herbicide 320 g/ha. A digest of the protocol: as §4
Assay [13] deals with redroot pigweed. The assay can be described thus: Test Example 4: herbicidal effect by soil treatment (Table 19, symbol N). The format is in vivo, redroot pigweed (Amaranthus retroflexus). The note with it: amount of applied herbicide 320 g/ha. The gist of the method:
as §4

Molecules are shown by their SMILES.

In the case of `CCc1nn(C)c(=O)c(-c2c(-c3ccccc3OC)sc3ccc(F)cc23)c1O` [2-414], in the assay on chickweed, the “P: chickweed, herbicidal effect grade” value is 5 (Herbicidal rate of 90% or more (almost completely withered)). Also, the “F: southern crabgrass, herbicidal effect grade” value in the assay with southern crabgrass [1] was 1 (Herbicidal rate of 5% or more and less than 20%). Also, in the assay with lambsquarters [2], the “O: lambsquarters, herbicidal effect grade” value was 3 (Herbicidal rate of 40% or more and less than 70%). The “herbicidal effect on D: Chinese sprangletop” value in the assay on Chinese sprangletop was 3 (Herbicidal rate of 40% or more and less than 70%). Further, the “herbicidal effect on H: barnyard grass” value in the assay on barnyard grass [3] was 4 (Herbicidal rate of 70% or more and less than 90%). Besides, the “I: wild oat, herbicidal effect grade” value in the assay with wild oat is 0 (Herbicidal rate of 5% or less (almost no effect)). Further, the “H: barnyard grass, herbicidal effect grade” value in the assay with barnyard grass [4] is 3 (Herbicidal rate of 40% or more and less than 70%). The “Herbicidal effect, B: Japanese bulrush” value with Japanese bulrush was 3 (Herbicidal rate of 40% or more and less than 70%). Besides, in the assay on green foxtail [5], the “G: green foxtail, herbicidal effect grade” value was 2 (Herbicidal rate of 20% or more and less than 40%). Besides, in the assay with Italian ryegrass, the “K: Italian ryegrass, herbicidal effect grade” value was 1 (Herbicidal rate of 5% or more and less than 20%). Further, the “R: persian speedwell, herbicidal effect grade” value in the assay with persian speedwell is given as 5 (Herbicidal rate of 90% or more (almost completely withered)). In addition, in the assay with windgrass, the “L: windgrass, herbicidal effect grade” value was 3 (Herbicidal rate of 40% or more and less than 70%). Moreover, in the assay with blackgrass, the “J: blackgrass, herbicidal effect grade” value was 2 (Herbicidal rate of 20% or more and less than 40%). Besides, in the assay on late watergrass, the “Herbicidal effect, A: late watergrass” value was 2 (Herbicidal rate of 20% or more and less than 40%). Besides, in the assay on velvetleaf [6], the “M: velvetleaf, herbicidal effect grade” value was 3 (Herbicidal rate of 40% or more and less than 70%). For the same compound, the “herbicidal effect on E: rice flat sedge” value with rice flat sedge is 3 (Herbicidal rate of 40% or more and less than 70%). In the assay with oval-leafed pondweed, the “Herbicidal effect, C: oval-leafed pondweed” value was 2 (Herbicidal rate of 20% or more and less than 40%).
Consider `Cc1nn(C)c(=O)c(-c2c(-c3ccc(OCC=C(Cl)Cl)cc3)sc3ccc(F)cc23)c1O` [2-442], for which the “herbicidal effect, M: velvetleaf” value in the assay with velvetleaf [7] was 0 (Herbicidal rate of 5% or less (almost no effect)). In addition, the “F: southern crabgrass, herbicidal effect grade” value in the assay on southern crabgrass [1] is 3 (Herbicidal rate of 40% or more and less than 70%). Besides, the “herbicidal effect, H: barnyard grass” value in the assay on barnyard grass [8] is on record as 0 (Herbicidal rate of 5% or less (almost no effect)). For the same compound, the “O: lambsquarters, herbicidal effect grade” value with lambsquarters [2] is listed as 5 (Herbicidal rate of 90% or more (almost completely withered)). Further, the “herbicidal effect, F: southern crabgrass” value with southern crabgrass [9] is 0 (Herbicidal rate of 5% or less (almost no effect)). Further, the “herbicidal effect, O: lambsquarters” value with lambsquarters [10] is 1 (Herbicidal rate of 5% or more and less than 20%). Further, the “herbicidal effect on D: Chinese sprangletop” value with Chinese sprangletop was 2 (Herbicidal rate of 20% or more and less than 40%). In the assay on barnyard grass [3], the “herbicidal effect on H: barnyard grass” value is 5 (Herbicidal rate of 90% or more (almost completely withered)). Besides, the “H: barnyard grass, herbicidal effect grade” value in the assay on barnyard grass [4] was 4 (Herbicidal rate of 70% or more and less than 90%). The “N: redroot pigweed, herbicidal effect grade” value in the assay on redroot pigweed [11] is reported as 5 (Herbicidal rate of 90% or more (almost completely withered)). In the assay on Japanese bulrush, the “Herbicidal effect, B: Japanese bulrush” value was 2 (Herbicidal rate of 20% or more and less than 40%). Besides, the “G: green foxtail, herbicidal effect grade” value in the assay on green foxtail [5] is 3 (Herbicidal rate of 40% or more and less than 70%). Further, in the assay with green foxtail [12], the “herbicidal effect, G: green foxtail” value is reported as 0 (Herbicidal rate of 5% or less (almost no effect)). In addition, the “Herbicidal effect, A: late watergrass” value in the assay with late watergrass is 3 (Herbicidal rate of 40% or more and less than 70%). Further, in the assay with velvetleaf [6], the “M: velvetleaf, herbicidal effect grade” value is 4 (Herbicidal rate of 70% or more and less than 90%). For the same compound, the “herbicidal effect on E: rice flat sedge” value in the assay on rice flat sedge is 3 (Herbicidal rate of 40% or more and less than 70%). Also, the “herbicidal effect, N: redroot pigweed” value in the assay on redroot pigweed [13] is 3 (Herbicidal rate of 40% or more and less than 70%). The “Herbicidal effect, C: oval-leafed pondweed” value in the assay with oval-leafed pondweed was 2 (Herbicidal rate of 20% or more and less than 40%).
